Measured values reported in patent US8841317B2 (Emory University, priority 2010, dated 2014).
Entries after “also recorded” stand apart in the source; their conditions may differ. Read-outs that look alike come from different tables or passages of the source.

Tests used:
[1] = system: human or murine macrophages; assay: Cellular viability (trypan blue exclusion, morphology, LDH); assay type: cell-based, human and murine
Procedure: (§1) Biochim Biophys Acta 887: 13-22.]. […] Cellular aliquots (100 μl) were taken daily and cells were diluted 1:1 with the vital dye trypan blue 0.4% solution (Cellgro, Mediatech Inc, Herndon, Va.) in PBS and viable cells were counted. LDH release into the supernatant was also measured to assess the toxicity of the drugs. […] Cell Microbiol 7: 1251-1262.].

THP-1 human macrophages = assay: TNFα release from TLR ligand-stimulated human macrophages (ELISA); assay type: cell-based; details: human and murine macrophages; TLR ligands LPS or Pam3CSK4
Procedure: (§2) TLR ligand concentrations ranging from (LPS: 10-0.31 picomolar (pM) and Pam3CSK4: 10-0.31 μg/ml) and non-TLR ligands (mouse IP-10 and TNFα: 1000-31 pg/ml) were made in duplicate wells using sterile PBS by serial fold dilutions in the 96-well tissue culture plates at 50 μl final volumes. Freshly grown THP-1cells, RAW264.7, ScCr, HEK-TLR2/6 and HEK-TLR4-MD2-CD14 transfected cells each adjusted to 10^6 cell/ml and 250 μl aliquots were dispensed into each well at a final cell density of 250×10^3 in the designated 96-well plates. The plates were then incubated overnight at 37° C. with 5% CO2 and humidity. Supernatants from stimulated cells were harvested and stored at −20° C. until further use.
(§3) Released cytokines TNFα and IL-6 and chemokines CXCL10 (IP-10), MIP-2α and IL-8 were quantified by DuoSet ELISA (R&D Systems, Minneapolis, Minn.) following the manufacturer's instructions as previously described [Zughaier S M, Zimmer S M, Datta A, Carlson R W, Stephens D S (2005) Differential induction of the toll-like receptor 4-MyD88-dependent and -independent signaling pathways by endotoxins. Infect Immun 73: 2940-2950.].

THP-1 cells [2] = assay: LDH release into supernatant; assay type: cell-based, human; details: THP-1 cells incubated 48 hr with 50 μM; DMSO control 5 IU/L
Procedure: as §1

[3] = doses as high as 300 mg/kg; cited from earlier work
[4] = system: HEK293 cells transfected with TLR2 alone or TLR2/6 receptors; assay: Pam3CSK4-induced IL-8 release (ELISA); assay type: cell-based, human; details: no drug = 1400 pg/ml
Procedure: as §2, §3

[5] = system: RAW 264.7 murine macrophages; assay: Nitric oxide release from TLR ligand-stimulated murine macrophages (Griess method); assay type: cell-based; details: TLR ligands LPS or Pam3CSK4
Procedure: as §2
(§4) Freshly grown adherent RAW 246.7 or 23ScCr (TLR4-deficient) macrophages were scraped by a cell scraper. Harvested cells were washed and re-suspended in Dulbecco's complete media, counted and adjusted to 10^6 cell/ml. […] aliquots were then dispensed into each well at final 250×10^3 cell density in the designated 96-well plates prior to stimulation with TLR ligands or recombinant cytokines as mentioned above. […] Nitric oxide release was quantified using the Griess chemical method as previously described [Zughaier S M, Tzeng Y L, Zimmer S M, Datta A, Carlson R W, et al. (2004) Neisseria meningitidis lipooligosaccharide structure-dependent activation of the macrophage CD14/Toll-like receptor 4 pathway. […]

THP-1 cells [6] = assay: Detection of acidic vesicular organelles (acridine orange); assay type: cell-based, human; details: 24 hr treatment, acridine orange 1 μg/ml
Procedure: THP-1 cells were plated on cover slips and allowed to attach. Following treatments for 24 hr with DMSO alone (control), Red-Br-nos, LPS, Red-Br-nos and LPS, cells were stained with 1 μg/ml acridine orange for 15 min, washed with PBS, and examined under a Zeiss fluorescence microscope using a 40× objective lens [Herman-Antosiewicz A, Johnson D E, Singh S V (2006) Sulforaphane causes autophagy to inhibit release of cytochrome C and apoptosis in human prostate cancer cells. Cancer Res 66: 5828-5835.].

[7] = system: human macrophage cells THP-1; assay: Autophagy by electron microscopy; assay type: cell-based; details: overnight, LPS 2 pM plus drug 50 μM
Procedure: Human macrophage cells were fixed for 1 hr with 2% glutaraldehyde in 0.1M sodium cacodylate buffer, rinsed in the same buffer and the post-fixed with 2% osmium tetroxide in the same buffer for 1 hr at room temperature. The samples were then dehydrated with a graded ethanol series through 3×100%, 2× in propylene oxide and embedded in Spurr's resin. Sections were stained with 1% uranyl acetate and lead citrate. Electron microscopy imaging was then performed at a magnification of 3597×.

[8] = system: ScCr (TLR4-deficient) cells; assay: Sterile inflammation: nitric oxide release after murine TNFα stimulation; assay type: cell-based; details: 50 μM for 1 hr or overnight, then murine TNFα 1000-31.2 pg/ml
Procedure: as §2, §4

THP-1 macrophages = assay: Respiratory burst ROS release (lucigenin chemiluminescence); assay type: cell-based, human
Procedure: The enhanced chemiluminescence method was used as previously described [Zughaier S M, Ryley H C, Jackson S K (1999) A melanin pigment purified from an epidemic strain of Burkholderia cepacia attenuates monocyte respiratory burst activity by scavenging superoxide anion. Infect Immun 67: 908-913.]. Briefly, freshly grown THP-1 cells were adjusted to 2×10^6/ml, transferred to two large tissue culture flasks labeled as primed or unstimulated. Two pmole/ml LPS were added to prime cells or left unstimulated as control cells. Both flasks were incubated overnight at 37° C. under 5% CO2. […] The cells were collected in universal tubes, washed twice with culture medium and resuspended in standard buffer (4.58 mM KH2PO4, 8.03 mM NaHPO4, 0.5 mM MgCl2, 0.45 mM CaCl2, 1% (w/v) glucose, 0.033% (w/v) KCl, 0.76% (w/v) NaCl and 0.1% (w/v) endotoxin-free bovine serum albumin (pH 7.3) at 2×10^6/ml. The chemiluminescence probe lucigenin (Sigma) was added to the cell suspension (25 μl/ml of cells from 1.0 mM stock solution) and mixed gently. Aliquots (150 μl) of the cellular mixture were transferred into at least quadruplicate wells of a white 96-well plate (FluoroNunc-PolySorp; Nalge Nunc International, Rochester, N.Y.). The respiratory burst was triggered with 50 μl of PMA (1 μM). Chemiluminescence was measured in relative light units (a measure of the number of photons generated by the reaction at each time point). Chemiluminescence was measured using a luminometer (ML3000, Dynatech Laboratories Inc. Chantilly, Va.) and the plate was read immediately and then at 2 min intervals for the next 90 min [Zughaier S M, Ryley H C, Jackson S K (1999) A melanin pigment purified from an epidemic strain of Burkholderia cepacia attenuates monocyte respiratory burst activity by scavenging superoxide anion. Infect Immun 67: 908-9131.

[9] = system: RAW264 (TLR4-sufficient) cells; assay: Sterile inflammation: nitric oxide release after murine IP-10 (CXCL10) stimulation; assay type: cell-based; details: 50 μM for 1 hr or overnight, then murine IP-10 1000-31.2 pg/ml
Procedure: as §2, §4

Structure (SMILES) | cellular toxicity / viability ([1]; human and murine macrophages) | TLR-mediated TNFα release (THP-1 human macrophages) | LDH release (THP-1 cells [2]) | toxicity [3] | IL-8 release [4] | TLR-mediated nitric oxide (NO) release [5] | cellular toxicity / viability [1] | acidic vesicular organelles (AVOs) (THP-1 cells [6]) | autophagy-related vacuolation (electron micrographs) [7] | nitric oxide release versus no drug [8] | ROS release, LPS primed cells (THP-1 macrophages; 50 μM added just prior to PMA-triggered respiratory burst) | ROS release, unprimed macrophages (THP-1 macrophages; 50 μM added just prior to respiratory burst) | ROS release, primed macrophages (THP-1 macrophages; added 2 hr prior to triggering the respiratory burst) | nitric oxide release versus no drug [9]
COc1ccc2c(c1OC)C(=O)O[C@@H]2[C@H]1c2c(c(Br)c3c(c2OC)OCO3)CCN1C [Br-nos, (S)-3-((R)-9-bromo-4-methoxy-6-methyl-5,6,7,8-tetrahydro-[1,3]dioxolo[4,5-g]isoquinolin-5-yl)-6,7-dimethoxyiso-benzofuran-1(3H)-one] | without evidence of cellular toxicity | dampened | 8 IU/L | non-toxic | 650 pg/mL | dampened |  |  |  |  |  |  |  | 
COc1ccc2c(c1OC)CO[C@@H]2[C@H]1c2c(c(Br)c3c(c2OC)OCO3)CCN1C [Red-Br-nos, (R)-9-bromo-5-((S)-4,5-dimethoxy-1,3-dihydroisobenzofuran-1-yl)-4-methoxy-6-methyl-5,6,7,8-tetrahydro-[1,3]di-oxolo-[4,5-g]isoquinoline] |  | dampened | 10 IU/L | non-toxic | 400 pg/mL | dampened | without evidence of cellular toxicity | confirmed the drug-induced autophagic activity; also recorded: formation (red fluorescence) of acridine orange-accumulating acidic vesicular organelles (AVOs) | increased vacuolation in the cytoplasm |  |  |  |  | 
COc1ccc2c(c1OC)C(=O)O[C@@H]2[C@H]1c2c(cc3c(c2OC)OCO3)CCN1C [noscapine, (S)-6,7-dimethoxy-3-((R)-4-methoxy-6-methyl-5,6,7,8-tetrahydro[1,3]-dioxolo-[4,5-g]isoquinolin-5-yl)isobenzo-furan-1(3H)-one] | did not induce inflammatory responses or impair cellular viability |  | 7 IU/L |  |  |  |  |  |  | not significant | enhanced ROS release | not in unprimed macrophages | no change in ROS release | not significant
